In patent publication US12162858B2, “Quinoline derivatives as inhibitors of AXL/MER RTK and CSF1R” (QURIENT CO., LTD., priority 2018, dated 2024):

Legend:
Type in all cases: cell-based
[1] = molecular target: T1, Mer (Ba/F3 cells) (Homo sapiens, UniProt Q12866); assay: BaF3 viability assay, Mer-dependent cells; details: read-out: Cellular Mer activity by Ba/F3 assay (IC50)
T1 sequence (Q12866 1-999): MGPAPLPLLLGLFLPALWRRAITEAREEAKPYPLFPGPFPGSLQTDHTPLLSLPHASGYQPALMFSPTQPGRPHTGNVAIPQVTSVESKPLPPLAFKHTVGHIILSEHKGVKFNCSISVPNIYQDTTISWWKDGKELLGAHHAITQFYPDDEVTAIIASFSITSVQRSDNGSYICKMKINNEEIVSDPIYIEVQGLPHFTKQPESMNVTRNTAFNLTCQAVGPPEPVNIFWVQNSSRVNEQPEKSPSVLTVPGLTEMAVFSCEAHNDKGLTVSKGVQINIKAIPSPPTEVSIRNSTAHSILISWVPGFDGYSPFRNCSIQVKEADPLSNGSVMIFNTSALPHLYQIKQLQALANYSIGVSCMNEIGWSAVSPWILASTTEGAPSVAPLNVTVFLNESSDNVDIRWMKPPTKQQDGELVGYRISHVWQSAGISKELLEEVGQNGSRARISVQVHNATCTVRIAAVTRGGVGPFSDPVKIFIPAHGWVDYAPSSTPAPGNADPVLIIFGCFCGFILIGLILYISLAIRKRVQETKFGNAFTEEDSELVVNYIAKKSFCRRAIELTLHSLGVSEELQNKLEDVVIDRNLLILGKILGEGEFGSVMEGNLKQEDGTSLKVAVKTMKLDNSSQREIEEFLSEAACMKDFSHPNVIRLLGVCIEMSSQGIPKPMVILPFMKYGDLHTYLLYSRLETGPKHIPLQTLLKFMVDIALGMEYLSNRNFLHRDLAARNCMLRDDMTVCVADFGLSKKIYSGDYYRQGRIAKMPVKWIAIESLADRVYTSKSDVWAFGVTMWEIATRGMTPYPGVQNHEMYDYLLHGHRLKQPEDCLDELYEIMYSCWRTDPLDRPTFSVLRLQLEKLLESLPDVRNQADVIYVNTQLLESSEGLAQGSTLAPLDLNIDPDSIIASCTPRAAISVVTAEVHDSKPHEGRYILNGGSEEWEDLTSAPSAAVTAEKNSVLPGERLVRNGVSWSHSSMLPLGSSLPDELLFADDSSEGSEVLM
Excerpt: (§1) In this system, IL-3-dependent Ba/F3 cells are modified to express an activated recombinant kinase (in the present case Axl, Mer and CSF1R). Following removal of IL-3, the modified cells are dependent on the activity of the recombinant kinase for survival and proliferation. Inhibition of such kinase(s) through test compounds reduces survival and proliferation of the cells.
(§2) Cell lines were maintained in growth media (GM) consisting of RPMI 1640 supplemented with 10% FBS. Cells in logarithmic-phase growth were harvested and 5,000 cells were distributed into each well of a 384-well plate in 50 μl GM. Parental cells (or experimental assays where specified) were further supplemented with 2 ng/ml IL-3 to support cell growth and survival. Fifty nanoliters of the indicated reference standard or experimental compound were added to appropriate wells (in duplicate) and the cells were cultured for 48 h at 37° C./5% CO2. Viability was determined by adding 10 μl Cell Titer Glo and measuring luminescence, which is reported as relative light units (RLU) measured in counts per second. The following calculations and formulas are used for data analysis using GraphPad Prism software: The curve fitting was made using the Dose response curves-Inhibition.

[2] = molecular target: T2, Axl (Ba/F3 cells) (Homo sapiens, UniProt P30530); assay: BaF3 viability assay, Axl-dependent cells; details: read-out: Cellular Axl activity by Ba/F3 assay (IC50)
T2 sequence (P30530 1-894): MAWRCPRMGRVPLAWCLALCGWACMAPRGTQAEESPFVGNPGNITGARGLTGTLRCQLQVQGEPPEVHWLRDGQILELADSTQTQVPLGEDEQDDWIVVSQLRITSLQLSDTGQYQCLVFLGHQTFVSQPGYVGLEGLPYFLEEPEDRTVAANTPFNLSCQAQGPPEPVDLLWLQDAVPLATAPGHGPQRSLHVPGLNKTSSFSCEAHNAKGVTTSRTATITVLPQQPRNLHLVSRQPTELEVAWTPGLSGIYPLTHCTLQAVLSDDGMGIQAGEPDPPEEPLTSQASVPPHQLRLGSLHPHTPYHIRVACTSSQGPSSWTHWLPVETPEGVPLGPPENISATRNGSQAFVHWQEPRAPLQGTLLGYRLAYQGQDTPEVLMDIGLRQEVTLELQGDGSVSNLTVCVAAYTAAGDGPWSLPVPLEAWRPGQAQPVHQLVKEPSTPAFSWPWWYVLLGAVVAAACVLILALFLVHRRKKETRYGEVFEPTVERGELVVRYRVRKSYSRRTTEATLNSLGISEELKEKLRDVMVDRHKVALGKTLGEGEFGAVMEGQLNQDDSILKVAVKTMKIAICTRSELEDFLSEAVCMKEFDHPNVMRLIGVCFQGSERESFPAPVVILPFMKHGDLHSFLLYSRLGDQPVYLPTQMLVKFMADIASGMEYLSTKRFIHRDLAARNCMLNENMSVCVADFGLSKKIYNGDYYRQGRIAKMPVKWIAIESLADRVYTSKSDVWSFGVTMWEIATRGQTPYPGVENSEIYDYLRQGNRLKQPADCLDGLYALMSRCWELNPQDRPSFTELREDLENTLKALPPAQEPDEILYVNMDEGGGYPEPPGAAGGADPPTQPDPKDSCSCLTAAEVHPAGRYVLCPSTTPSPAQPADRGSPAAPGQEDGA
Excerpt: as §1, §2

[3] = molecular target: CSF1R (Ba/F3 cells) (Homo sapiens, UniProt P07333); assay: BaF3 viability assay, CSF1R-dependent cells; details: read-out: Cellular CSF1R activity by Ba/F3 assay (IC50)
Chain of CSF1R (Ba/F3 cells) (P07333 whole entry, change not shown): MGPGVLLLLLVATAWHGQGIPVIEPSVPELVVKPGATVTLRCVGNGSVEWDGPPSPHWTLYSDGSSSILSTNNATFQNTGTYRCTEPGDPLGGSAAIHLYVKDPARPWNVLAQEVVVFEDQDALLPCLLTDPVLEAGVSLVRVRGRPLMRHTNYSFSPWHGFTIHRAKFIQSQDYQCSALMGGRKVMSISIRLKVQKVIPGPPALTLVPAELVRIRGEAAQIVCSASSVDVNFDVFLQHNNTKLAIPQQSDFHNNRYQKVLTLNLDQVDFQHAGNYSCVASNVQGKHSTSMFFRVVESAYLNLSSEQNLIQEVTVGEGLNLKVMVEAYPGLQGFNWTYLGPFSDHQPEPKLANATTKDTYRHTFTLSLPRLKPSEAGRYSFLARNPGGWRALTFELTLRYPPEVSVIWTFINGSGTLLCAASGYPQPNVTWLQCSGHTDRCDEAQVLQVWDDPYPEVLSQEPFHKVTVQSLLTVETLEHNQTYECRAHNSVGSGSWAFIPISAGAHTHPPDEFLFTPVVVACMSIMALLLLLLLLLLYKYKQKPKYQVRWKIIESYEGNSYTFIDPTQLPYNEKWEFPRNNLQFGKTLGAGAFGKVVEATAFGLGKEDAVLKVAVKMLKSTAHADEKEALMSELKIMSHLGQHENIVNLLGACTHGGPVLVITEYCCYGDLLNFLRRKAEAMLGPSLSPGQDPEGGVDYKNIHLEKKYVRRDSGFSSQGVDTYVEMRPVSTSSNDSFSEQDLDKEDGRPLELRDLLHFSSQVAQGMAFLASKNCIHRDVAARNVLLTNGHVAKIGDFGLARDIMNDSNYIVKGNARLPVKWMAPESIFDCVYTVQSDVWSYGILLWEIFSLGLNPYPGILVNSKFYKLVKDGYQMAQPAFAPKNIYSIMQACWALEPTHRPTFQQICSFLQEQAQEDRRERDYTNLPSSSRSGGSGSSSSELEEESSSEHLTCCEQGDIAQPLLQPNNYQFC
Excerpt: as §1, §2

SMILES: CCCn1cc(OCCC(O)CO)c(C(=O)Nc2ccc(Oc3ccnc4cc(OC)c(OC)cc34)cn2)n1 (stereo not drawn) [Compound 15]
- GI50 [1]: 1 to 10 µM
- GI50 [2]: < 1 µM
- GI50 [3]: 1 to 10 µM

SMILES: COc1cc2nccc(Oc3ccc(NC(=O)c4nn(CC(C)O)cc4OCC(F)(F)F)nc3)c2cc1OC (stereo not drawn) [Compound 17]
- GI50 [1]: < 1 µM
- GI50 [2]: < 1 µM
- GI50 [3]: < 1 µM

SMILES: COc1cc2nccc(Oc3ccc(NC(=O)c4nn(CCCO)cc4OCC(F)(F)F)nc3)c2cc1OC [Compound 18]
- GI50 [1]: < 1 µM
- GI50 [2]: < 1 µM
- GI50 [3]: < 1 µM

SMILES: COc1cc2nccc(Oc3ccc(NC(=O)c4nn(C[C@@H](C)O)cc4OCC(F)(F)F)nc3)c2cc1OC [Compound 29]
- GI50 [1]: < 1 µM
- GI50 [2]: < 1 µM
- GI50 [3]: < 1 µM

SMILES: COc1cc2nccc(Oc3ccc(NC(=O)c4nn(C[C@H](C)O)cc4OCC(F)(F)F)nc3)c2cc1OC [Compound 30]
- GI50 [1]: < 1 µM
- GI50 [2]: < 1 µM
- GI50 [3]: < 1 µM

SMILES: CCCn1cc(OC(C)C)c(C(=O)Nc2ccc(Oc3ccnc4cc(OC)c(OC(F)(F)F)cc34)c(F)c2)n1 [Compound 35]
- GI50 [1]: ≥ 10 µM
- GI50 [2]: ≥ 10 µM
- GI50 [3]: 1 to 10 µM
